According to patent publication US12077566B2, “Mutants of recombinant immunoregulatory protein of Ganoderma lucidum and applications thereof” (priority 2017, dated 2024):

What was measured:
[1] = system: rLZ-8 internalization in Hep G2 cells; assay: Inhibitor screening of rLZ-8 endocytosis; type: cell-based
Method: The rLZ-8 is labeled by an Alexa Fluor 568 fluorescent probe; then 10 μg/mL fluorescent labeled rLZ-8 acts on Hep G2 cells for 3 hours; whether the rLZ-8 enters the cell is observed with the ultrahigh resolution imaging system; and obtained images are reconstructed, fitted and further analyzed through an image analysis software of Imaris.
Inhibitors of different internalization ways are selected, respectively EIPA (macropinocytosis inhibitor), Wortmannin/LY294002 (P13K inhibitor), Nystatin+Progesterone (caveolae inhibitor) and Chlorpromazine (clathrin inhibitor); the inhibitors respectively act on the Hep G2 cells, and inhibitory effects of the inhibitors on rLZ-8 endocytosis are observed.

[2] = system: human liver cancer Hep G2 cells; details: for Mice weight after experiment: mouse, in vivo; for Mice tumor weight after experiment / Survival rate of mice after experiment: qd×28 i.v., rLZ-8 and mutants 0.5 mg/kg, sorafenib 50 mg/kg; for Survival rate of mice after experiment: 10 mice per group
Text: Two weeks later, the model mice are divided into groups randomly, and each group has 10 mice. The administration method is caudal vein injection, once a day, for consecutive 28 days (qd×28, i.v.). […] During the experiment, if the mouse dies, the dead mouse is weighted on the same day, and the tumor tissue is taken out to be weighted. For the living mouse after administration for 28 days, the mouse is killed, and then the tumor tissue is taken out to be weighted. The death time and death number of the mice in each group are recorded in detail; the survival conditions of the mice of the experimental groups and the control groups are analyzed, and the survival rate is calculated, wherein the survival rate is obtained through subtracting the death number of the mice from the total number of the mice, and then dividing the difference by the total number of the mice.

[3] = molecular target: EGFR extracellular domain (Homo sapiens, UniProt P00533); assay: Affinity test by surface plasmon resonance (Biacore T200, CM5 chip); type: binding; details: EGFR extracellular domain coupled on CM5 chip, analyte 4-256 nM
Method: The Biacore™ T200 equipment (a Surface Plasmon Resonance from GE Company) is selected. Through the surface plasma resonance technology, the affinity of the rLZ-8 and the mutants thereof to the EGFR extracellular domain is tested. The CM5 chip is adopted to serve as the affinity test chip.
The EGFR extracellular domain (with an amino acid sequence of 25-645) serves as the ligand for coupling; 1 mg EGFR freeze-dried powders are diluted with HEPES buffer solution to a concentration of 400 μg/mL and set aside. Three 1.5 mL EP tubes are prepared; 10 μL ligand are respectively added into the three tubes, then 90 μL 10 mM sodium acetate with different pH values of 4.5, 5.0 and 5.5 are respectively added into the tubes and are mixed completely and uniformly; and a final concentration of the ligand is 40 μg/mL. Moreover, 200 μL 50 mM sodium acetate is added into another 1.5 mL EP tube.
The ligand has a molecular weight of 70 kDa, the analyte (rLZ-8) has a molecular weight of 12.4 kDa. In theory, one rLZ-8 […] can bind with one EGFR, and thus the stoichiometric ratio Sm is equal to 1. Through the following equations, the coupling amount RL of the ligand is calculated.
Through the experimental experience, the optimal reagent coupling amount is set to be 3*RL, and the coupling amount is set to be 1700 RU. The EGFR extracellular domain is successively coupled on the CM5 chip. […]

[4] = system: transplanted liver cancer cells H22; details: mouse; cited from earlier work
[5] = system: human lung cancer A549 cells; assay: Orthotopic transplantation tumor model of human lung cancer A549 cells; details: after administration for 28 days;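 further: test animals were NOG mice aged 6-8 weeks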
Method: The human lung cancer A549 cell strain is selected. The NOG Mice of 6-8 weeks old are selected.
The DMEM containing 10% fetal bovine serum is selected for the human lung cancer A549 cells, and then is placed in the CO2 constant-temperature incubator at 37° C. for culturing. The A549 cells at the logarithmic phase are digested by pancreatin and thereafter washed with serum-free DMEM; the living cell concentration is adjusted to 1×10^8 cells per milliliter; 20 μL cell suspension is taken and inoculated at the lung of the NOG mice; two weeks later, the orthotopic transplantation tumor model of A549 lung cancer cells is constructed in the NOG mice.

[6] = system: human colon cancer SW480 cells; assay: Transplantation tumor model of human colon cancer SW480 cells; type: in vivo, BALB/c nude mice; details: after administration for 28 days
Method: The RPMI1640 medium containing 10% fetal bovine serum is selected for the human colon cancer SW480 cells, and then is placed in the CO2 constant-temperature incubator at 37° C. for culturing. The SW480 cells at the logarithmic phase are digested by pancreatin and thereafter washed with serum-free RPMI1640 medium; 2×10^6 cells are inoculated below the back skin of the BALB/c nude mice; after the tumor blocks for observation are formed and have the diameter larger than 0.5 cm, the mice are divided into groups randomly; and the transplantation tumor model of human colon cancer SW480 cells are constructed in the BALB/c nude mice.

S180 = details: mouse; cited from earlier work
Hep G2 cells = assay: Cell death after rLZ-8 internalization; type: cell-based; details: 100 μg/mL, 5 hours
Text: With the ultrahigh resolution imaging system, the whole change process of the cell after the internalization of the rLZ-8 is observed in real time; and, combined with the above researches, the reason why the rLZ-8 causes the tumor cell death is judged.

[7] = system: human breast cancer MCF7 cells; assay: Orthotopic transplantation tumor model of human breast cancer MCF7 cells; type: in vivo, BALB/c nude mice; details: after administration for 28 days
Method: One day before the experiment, 0.5 mg of 17ß estradiol sustained release tablet is embedded below the neck skin of the BALB/c nude mice.

[8] = system: EGFR, c-Met, PDGFR, N-cadherin and LDLR; assay: Immunofluorescence co-localization of rLZ-8 with membrane receptors; type: cell-based
Method: Considering that the high internalization degree of the rLZ-8 may be caused by the internalization after binding with a receptor on the cytomembrane, the rLZ-8 and the receptor on the cytomembrane are screened. Relationships between the different receptors on the cytomembrane and the tLZ-8 are measured through an immunofluorescence method. Fluorescent labels are made respectively on antibodies of EGFR, c-Met, PDGFR, N-cadherin and LDLR, and co-localization situations thereof with the rLZ-8 are respectively observed.

With `CCN(c1nc(N)c(C(=O)NC(=N)N)nc1Cl)C(C)C` [EIPA] the “Inhibitory effect on rLZ-8 internalization (in words)” value ([1]; Hep G2 cells) was “effectively inhibits the internalization of the rLZ-8”.

In the case of `CNC(=O)c1cc(Oc2ccc(NC(=O)Nc3ccc(Cl)c(C(F)(F)F)c3)cc2)ccn1` [Sorafenib, sorafenib, reference compound], the “Mice weight after experiment” value [2] is reported as 19.6 ± 1.6 g, the “Mice tumor weight after experiment” value [2] is reported as 0.82 ± 0.37 g and the “Survival rate of mice after experiment” value [2] is reported as 50%.

For mβCD, the “Inhibition of internalization efficiency of the rLZ-8” value [1] was 50%.

For “rLZ-8: recombinant immunoprotein of Ganoderma lucidum, sequence SEQ ID NO: 1, expressed in Pichia pastoris”, the “Dissociation rate constant (koff)” value [3] was 0.000583 s⁻¹, the Ka [3] was 63400 M⁻¹ s⁻¹ and the “In vivo half-life period (in words)” value (In vivo half-life period) was “relatively short in vivo half-life period”. For the same compound, the “In vivo tumor growth (in words)” value [4] was “can inhibit the in vivo growth”, the “Mice survival rate after experiment” value [5] was 50% and the “Mice tumor weight after experiment” value [5] was 0.60 ± 0.45 g. The “Mice weight after experiment” value [5] was 20.8 ± 1.5 g, the “Mice tumor weight after experiment” value [6] was 1.94 ± 0.43 g and the “In vivo tumor growth (in words)” value (S180) was “can inhibit the in vivo growth”. The “Cell death (in words)” value (Hep G2 cells) was “shrinkage, burst and death of Hep G2 cells happen”, the “Mice tumor weight after experiment” value [7] was 0.74 ± 0.35 g and the “Co-localization with other internalization-related membrane receptors (in words)” value [8] was “no co-localization phenomenon”. The “Co-localization with the EGFR (in words)” value [8] was “high-degree co-localization phenomenon”, the “Mice weight after experiment” value [2] was 19.8 ± 1.4 g and the “Mice tumor weight after experiment” value [2] was 0.62 ± 0.53 g. For the same compound, the “Survival rate of mice after experiment” value [2] was 60%.
